Where two headings read alike, the source gives them in different places.
Key:
HeLa cells = assay: in vitro; assay type: cell-based; conditions: human, 8 h
Procedure: HeLa cells were plated in 96-well microtiter plates in 100 μl culture medium (4×10^4/well). After 20 hours, the cells were exposed to the test compounds at different dilutions and incubated for the next 8 h at 37° C. in a 5% CO2 humidified atmosphere. After 6 h incubation, the Alamar Blue was added in an amount equal to 10% of the culture volume (10 μl). Two hours after the addition of the Alamar Blue, the fluorescence was measured using a Victor 1420 microplate reader.

NF-κB = assay: NF-κB-dependent luciferase reporter gene assay in HeLa κB-transformed cells stimulated with TPA; assay type: cell-based, human; conditions: Homo sapiens; concentration that halved NF-κB activity; HeLa reporter cells, TPA 25 ng/ml, 8 h treatment
Procedure: (§1) HeLa cell clone 13B, stably transfected with a luciferase reporter plasmid controlled by the human hsp70 promoter, and HeLa κB-transformed cells, stably transfected with a luciferase reporter plasmid controlled by a synthetic NF-κB-STM construct, were maintained in DMEM medium supplemented with 10% FBS, L-glutamine (2 mM) and G418 (250 μg/ml) at 37° C. in a 5% CO2 humidified atmosphere.
(§2) Cells were seeded at a density of 4×10^4 cells/well in 96-well plates. After 18–20 h, the medium was removed and cells were treated for 8 h with the test compounds (100 μl) at the appropriate dilutions in serum-free medium. For the NF-κB-dependent reporter gene assay, cells were stimulated with TPA (25 ng/ml) 2 h after exposure to the compounds.
(§3) After incubation, the medium was removed and cells were lysed in 10 μl of lysis buffer. The luciferase activity was determined by adding 100 μl of substrate and measuring the release of light using a Victor 1420 microplate reader (Wallac, Finland).
The fragment Kpn I-BamH I from the pGL3 basic vector containing the luciferase gene (PROMEGA) was inserted in the pcDNA3 vector (INVITROGEN) digested with Bgl II-KpnI. (This digestion removes the CMV-promoter from pcDNA3.) The resulting new vector was digested with Kpn I-Hind III and a promoter containing a ‘5×NF-κB binding sites-TATA box’ sequence was inserted upstream of the luciferase gene. This vector has been named STM.
To obtain stable HeLa cell lines expressing the luciferase gene under the control of NF-κB, HeLa cells were transfected (using lipofectamine plus GIBCO) with the STM-Pvu I linearized vector, and selected for 20 days with G418 (800 μg/ml). After selection, the resistant HeLa cell pool was controlled (in quadruplicate samples) for luciferase activity after stimulation with TNFα, IL-1 and TPA.
(§4) The AC200/μM for HSF is the concentration at which the tested compound doubled the HSF activity in this assay. The IC50/μM for NF-κB is the concentration at which the tested compound halved the NF-κB activity in this assay. […] The LC50/μM is the concentration at which the tested compound killed half the cells in each assay. […] (n.d. means not done)

Monkey kidney 37RC cells = assay type: cell-based; conditions: concentration 100% toxic to uninfected 37RC cells, visually by microscopy
HSF = HSF activation, luciferase reporter controlled by the human hsp70 promoter in HeLa cell clone 13B; assay type: cell-based; conditions: Homo sapiens; concentration at which the compound doubled HSF activity; HeLa clone 13B, 8 h treatment; read-out: HSF AC200/μM
Procedure: as §1, §2, §3, §4

Sendai virus = assay: Replication of Sendai virus in 37RC cells, virus yield by haemagglutinin titration; assay type: cell-based; conditions: Respirovirus muris; 50% inhibitory dose/concentration at 24 hours, Sendai virus in 37RC cells; read-out: ID50/μM
Procedure: Monkey kidney 37RC cells were grown at 37° C. in RPMI medium supplemented with 5% foetal bovine serum (FBS), L-glutarine (2 mM) and antibiotics. Sendai virus was grown in the allantoic cavity of 10-day-old embryonated eggs. Viral titre was expressed in haemagglutinating units (HAU) per ml; haemagglutinin titration was done according to standard procedures, as described in C. Amici et al. (J. Virol. 68: 6890–6899, 1994). […] Confluent 37RC monolayers were infected with Sendai Virus (5 HAU/ml) for 1 h at 37° C. After 1 hour incubation, viral inoculum was removed and cells were treated with the test compounds at different concentrations. Virus yields were determined 24 h post infection by haemagglutinin titration. Mock-infected cells were treated identically and processed for cytotoxicity assay (Neutral Red assay) at the same time (see below). The results were expressed as HAU/ml (each point represents the mean of duplicate samples).

in vitro [1] = assay type: cell-based; conditions: monkey, 50% lethal dose/concentration, neutral red assay, 37RC cells, read-out: LC50/μM
Procedure: Cell viability was determined using the Neutral Red assay.

in vitro [2] = assay: in vitro
Procedure: This assay was carried out on HeLa cells using a technique analogous to that described below in Example 36(b) for Monkey Kidney 37RC cells.
as §4
Cell viability was determined using the Neutral Red assay. 37RC cells were seeded at density of 6×10^4 cells/well in 24-well plates and incubated for 24 h. Confluent 37RC monolayers were treated with the test compounds at different dilutions for 24 h at 37° C. After incubation, the medium was removed and the cells were incubated with RPMI medium containing 40 μg/ml Neutral Red dye (500 μl/well). After 2 h at 37° C., the monolayers were washed with phosphate-buffered saline (PBS) and then with a solution containing 1% CaCl2 and 0.5% formaldehyde. After washing, a solution containing 1% acetic acid/50% ethanol was added to the monolayers (250 μl/well). After 10 min at room temperature, the absorbance was determined with a microplate reader (Victor 1420, Wallac) at 540 nm.

Row | Compound | CC50 (HeLa cells) [µM] | IC50 (NF-κB) [µM] | TD100/μM (Monkey kidney 37RC cells) [µM] | EC (2-fold HSF activity) (HSF) [µM] | IC50 (Sendai virus) [µM] | CC50 at 24 h (in vitro [1]) [µM] | CC50 at 24 h (in vitro [2]; human) [µM] | CC50 at 24 h (in vitro [2]) [µM]
1 | CC(C)/C=C1/C(=O)C=CC1NC(=O)OC(C)(C)C (stereo not drawn) [CTC-121, (5-iso-Butylidene-4-oxocyclopent-2-enyl)-carbamic acid tert-butyl ester] | > 800 | 4.7 | 50 | 2.8 | 1 | 4 | – | –
2 | CCCCC1C=CC(=O)/C1=C/CC(C)C (stereo not drawn) [CTC-122] | 227 | 12 | 50 | 13 | 0.3 | – | – | –
3 | CC(C)(C)OC(=O)NC1C=CC(=O)C1 (stereo not drawn) [CTC-132, (4-Oxocyclopent-2-enyl)-carbamic acid tert-butyl ester] | > 800 | 52 | 100 | 51 | 20 | – | – | –
4 | CCCCC1C=CC(=O)/C1=C/C(C)C (stereo not drawn) [CTC-145] | 506 | 38 | 10 | 13 | 0.3 | – | – | –
5 | CC1C=CC(=O)/C1=C/c1ccccc1 (stereo not drawn) [CTC-150, 4-Methyl-5-[1-phenyl-meth-(E)-ylidene]-cyclopent-2-enone] | 314 | 7 | 50 | 3 | 0.9 | – | – | –
6 | CC(C)/C=C1/C(=O)C=CC1C (stereo not drawn) [CTC-154] | > 800 | 14 | – | 13 | – | – | – | –
7 | CCCCCC/C=C1/C(=O)C=CC1C (stereo not drawn) [CTC-162] | 234 | < 6.2 | – | < 6.2 | – | – | – | –
8 | CCCCC/C=C1/C(=O)C=CC1C (stereo not drawn) [CTC-164] | > 800 | 40 | – | > 100 | – | – | – | –
9 | O=C1C=CC(NC(=O)c2ccccc2)C1 (stereo not drawn) [CTC-171, N-(4-Oxocyclopent-2-enyl)-benzamide] | > 800 | 38 | 100 | 51 | 20 | 59 | – | –
10 | CCCCC1C=CC(=O)/C1=C/C1CC1 (stereo not drawn) [CTC-177] | 239 | 14 | – | 8 | – | – | – | –
11 | CC(C)/C=C1/C(=O)C=C[C@H]1NC(=O)OC(C)(C)C [CTC-195, (2R)-(5-iso-Butylidene-4-oxocyclopent-2-enyl)-carbamic acid tert-butyl ester] | > 800 | 6.6 | 10 | 5 | 0.4 | 4 | – | –
12 | CC(C)/C=C1/C(=O)C=C[C@@H]1NC(=O)OC(C)(C)C [CTC-199, (2S)-(5-iso-Butylidene-4-oxocyclopent-2-enyl)-carbamic acid tert-butyl ester] | > 800 | 5 | 50 | 1.8 | 1 | 4 | – | –
13 | CC(C)(C)OC(=O)NC1C=CC(=O)/C1=C/c1ccc(Cl)cc1 (stereo not drawn) [CTC-247, [(E)-5-(4-Chloro-benzylidene)-4-oxo-cyclopent-2-enyl]-carbamic acid tert-butyl ester] | > 800 | 9 | 10 | 2 | 0.6 | 3.4 | 72 | –
14 | O=C1C=CC(Nc2ccccc2)C1 (stereo not drawn) [CTC-252, 4-Phenylamino-cyclopent-2-one] | > 800 | 57 | – | 27 | – | – | – | –
15 | O=C1C=CC(NC(=O)Oc2ccccc2)C1 (stereo not drawn) [CTC-260, (4-Oxocyclopent-2-enyl)-carbamic acid phenyl ester] | – | 9 | – | 10 | – | – | – | 74
16 | CCOC(=O)N(C(=O)OC(C)(C)C)C1C=CC(=O)C1 (stereo not drawn) [CTC-267, N-tert-Butoxycarbonyl-(4-Oxocyclopent-2-enyl)-carbamic acid ethyl ester] | – | 35 | – | 18 | – | – | 233 | –
17 | CCOC(=O)NC1C=CC(=O)C1 (stereo not drawn) [CTC-271, (4-Oxocyclopent-2-enyl)-carbamic acid ethyl ester] | – | 39 | – | 49 | – | – | 104 | –
18 | Cc1cc(C)c(/C=C2/C(=O)C=C[C@@H]2NC(=O)OC(C)(C)C)c(C)c1 [CTC-285, (1S)-[4-Oxo-(E)-5-(2,4,6-trimethyl-benzylidene)-cyclopent-2-enyl]-carbamic acid tert-butyl ester] | – | 10 | – | < 6.2 | – | – | 25 | –
19 | O=C1C=CC(NC(=O)CCl)C1 (stereo not drawn) [CTC-304, 2-Chloro-N-(4-oxo-cyclopent-2-enyl)-acetamide] | – | < 6.2 | – | < 6.2 | – | – | 79 | –
20 | COC(=O)[C@H](CSC1CC(=O)/C(=C/C(C)C)C1C)NC(=O)OC(C)(C)C (stereo partly drawn) [CTM-126] | > 800 | 21 | – | 18 | – | – | – | –
21 | CC(C)(C)OC(=O)N[C@@H](CS[C@@H]1CC(=O)/C(=C/c2ccccc2)[C@H]1NC(=O)OC(C)(C)C)C(=O)O [CTM-228, (2R)-3-((1R,2R)-(E)-3-Benzylidene-2-tert-butoxycarbonylamino-4-oxocyclopentylsulfanyl)-2-tert-butoxycarbonylaminopropionic acid] | – | < 6.2 | – | < 6.2 | – | – | 25 | –

Reference: patent US7183440B2, “Pharmaceutically useful compounds” (priority 2005, dated 2007)
